From ChEMBL document CHEMBL1201862, “PubChem BioAssay data set” (2004) come the findings set out here.

The structures appear in SMILES notation.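 Dose response: 5 concentrations. Exposure: 48 h. Format: 96-well plates. Endpoint: linear interpolation; highest concentration if not reached. GI50 = concentration required for 50% inhibition of growth.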 Calls of active or inactive are those of the source. Cut-off read from the data, not from the text of the source: active = GI50 up to about 1.1 µM and inactive = higher. Bounds are passed on as bounds.

Common to all, as to experiment: NCI-60 cell line screen, 48 h
In experiment [1] the test system is ACHN.
Experiment [2] concerns UACC-257.
Experiment [3] has as its system NCI-H23.
For experiment [4], the system named is UO-31.
Experiment [5] concerns SW-620.
Experiment [6] concerns HOP-62.
Experiment [7] concerns KM12.
In experiment [8] the test system is A498.
Experiment [9] deals with PC-3.
Experiment [10] has as its system SF-295.
The test system of experiment [11] is SNB-19.
In experiment [12] the test system is 786-0.
Experiment [13] relates to HCC 2998.
Experiment [14] relates to OVCAR-8.
For experiment [15], the system named is T47D.
Experiment [16] has as its system RXF 393.
Experiment [17] has as its system NCI-H460.
Experiment [18] has as its system HL-60.
In experiment [19] the test system is A549.
Experiment [20] has as its system Malme-3M.

`CC1=NN(c2nc(N)nc(COc3ccc(N)cc3)n2)C(C)(C)C1`: the GI50 in experiment [1], in experiment [2], in experiment [3], in experiment [4], in experiment [5] and in [6] was > 100 µM (inactive) in each case. Also, the GI50 in experiment [7], in experiment [8], in [9], in [10], in [11] and in [12] was > 100 µM (inactive) throughout. For the same compound, the GI50 in experiment [13], in experiment [14], in [15], in experiment [16], in [17] and in [18] was > 100 µM (inactive) throughout.

For `N/C(=N\N=C\c1nc2ccccc2o1)c1cnccn1`, the GI50 in experiment [1] is 70.8 µM (inactive); in experiment [2], > 100 µM (inactive); in [3], 83.8 µM (inactive); in experiment [4], > 100 µM (inactive); in experiment [19], > 100 µM (inactive); in experiment [5], > 100 µM (inactive). Moreover, the GI50 in experiment [6] was 43.2 µM (inactive); in experiment [7] it was > 100 µM (inactive); in experiment [20], 1.71 µM (inactive); in experiment [8], > 100 µM (inactive); in experiment [9], > 100 µM (inactive); in [10] it was 87.9 µM (inactive). In addition, the GI50 is > 100 µM (inactive) in experiment [11]; 66.7 µM (inactive) in [12]; > 100 µM (inactive) in experiment [14]; 51.4 µM (inactive) in experiment [15]; 49.5 µM (inactive) in [16]; 72.9 µM (inactive) in experiment [17]. Also, the GI50 in experiment [18] was 49.9 µM (inactive).

Turning to `CC1=NN(c2cccc(Cl)c2)C2(SCC(=O)N2c2nc3ccccc3s2)/C1=C\c1ccccc1` (centres undefined), the GI50 in [1] was 19.6 µM (inactive); in experiment [2], 21.9 µM (inactive); in experiment [3], 20.2 µM (inactive); in experiment [4], 20.1 µM (inactive); in [5], 19.6 µM (inactive); in experiment [6], 22.3 µM (inactive). The GI50 in experiment [7] was 16.1 µM (inactive); in [8], 23.2 µM (inactive); in [9] it was 23.6 µM (inactive); in experiment [10] it was 21.6 µM (inactive); in experiment [12], 16.6 µM (inactive); in [13], 14.2 µM (inactive). Besides, the GI50 in experiment [14] is 19.5 µM (inactive); in [15], 27.1 µM (inactive); in experiment [16], 21.6 µM (inactive); in [17], 15.3 µM (inactive); in experiment [18] it was 30.1 µM (inactive).

With `C=CCCCCCCC#CCCCCCCCCCC[C@@H]1C(=O)O[C@H](C)[C@@H]1O.CCCCCCCCC#CCCCCCCCCCC[C@@H]1C(=O)O[C@H](C)[C@@H]1O`, the GI50 in experiment [1] was 17.7 µM (inactive); in experiment [2] it was 8.45 µM (inactive); in experiment [3], 8.39 µM (inactive); in experiment [4], 15.6 µM (inactive); in experiment [19], 14.1 µM (inactive); in experiment [5] it was 15.2 µM (inactive). In addition, the GI50 was 16 µM (inactive) in experiment [6]; 10.1 µM (inactive) in experiment [7]; 17.5 µM (inactive) in [20]; 55.3 µM (inactive) in [8]; 13.1 µM (inactive) in experiment [9]; 18.8 µM (inactive) in experiment [10]. Moreover, the GI50 in [11] was 15.9 µM (inactive); in experiment [12], 15.8 µM (inactive); in [13], 23.6 µM (inactive); in experiment [14] it was 15.3 µM (inactive); in experiment [15] it was 14.9 µM (inactive); in [16], 11.4 µM (inactive). For the same compound, the GI50 in experiment [17] is 11.7 µM (inactive).

In the case of `O=c1[nH]ncc2[nH]c3c(c12)CCc1ccccc1-3`, the GI50 in [1] is 32.1 µM (inactive); in [2], 45.6 µM (inactive); in experiment [3], 39.4 µM (inactive); in experiment [4], 30.2 µM (inactive); in [19], 29 µM (inactive); in experiment [5], 34.4 µM (inactive). For the same compound, the GI50 in [6] was 45.9 µM (inactive); in experiment [7], 28.2 µM (inactive); in experiment [20], 32.9 µM (inactive); in experiment [8] it was 27.7 µM (inactive); in experiment [9] it was 27.2 µM (inactive); in experiment [10] it was 37.8 µM (inactive). For the same compound, the GI50 in experiment [11] was 54.3 µM (inactive); in [12] it was 36.1 µM (inactive); in experiment [14], 33.6 µM (inactive); in experiment [15], 25.2 µM (inactive); in experiment [16], 16.6 µM (inactive); in experiment [17], 28.2 µM (inactive). For the same compound, in [18], the GI50 is 24.7 µM (inactive).

With `NCC(O)CNCC/C=C\C/C=C\C/C=C\C/C=C\C/C=C\C/C=C\CCCCC/C=C\CCNCC(O)CN` (centres undefined), the GI50 in [1] is 1.8 µM (inactive); in [2], 2.13 µM (inactive); in experiment [4], 1.9 µM (inactive); in experiment [19] it was 1.85 µM (inactive); in experiment [5], 1.78 µM (inactive); in [6] it was 1.97 µM (inactive). Moreover, the GI50 in experiment [7] is 1.58 µM (inactive); in experiment [20], 1.94 µM (inactive); in experiment [8], 1.83 µM (inactive); in [9], 1.92 µM (inactive); in experiment [10] it was 2.07 µM (inactive); in experiment [11], 1.9 µM (inactive). Also, the GI50 in experiment [12] is 1.69 µM (inactive); in [14], 1.78 µM (inactive); in experiment [15], 2 µM (inactive); in [17] it was 1.82 µM (inactive); in experiment [18], 0.453 µM (active).

For `N#CCOc1cccc(C2(N3CC=CCC3)CCCCC2)c1`, the GI50 was > 100 µM (inactive) in [1]; 72.3 µM (inactive) in experiment [2]; > 100 µM (inactive) in experiment [3]; > 100 µM (inactive) in experiment [4]; > 100 µM (inactive) in experiment [19]; 94 µM (inactive) in experiment [5]. Moreover, the GI50 in [6], in experiment [7], in experiment [20], in [8], in experiment [9] and in experiment [10] was > 100 µM (inactive) each time. Besides, the GI50 in [11] was > 100 µM (inactive); in [12], > 100 µM (inactive); in experiment [14], 86.9 µM (inactive); in experiment [15], > 100 µM (inactive); in experiment [18] it was 83.2 µM (inactive).

For `CCC1CC2CN3CCc4c([nH]c5c(-c6c(OC)ccc7c8c([nH]c67)[C@]6(C(=O)OC)CC7CC(CC)C6N(CC8)C7)c(O)ccc45)[C@](C(=O)OC)(C2)C13` (some centres undefined), the GI50 is 19.6 µM (inactive) in experiment [1]; 18.6 µM (inactive) in experiment [2]; 16 µM (inactive) in experiment [3]; 12.7 µM (inactive) in experiment [4]; 17.6 µM (inactive) in [19]; 12.4 µM (inactive) in [5]. The GI50 in experiment [6] was 15.2 µM (inactive); in experiment [7], 12.4 µM (inactive); in experiment [20], > 10 µM (inactive); in experiment [8], 15.1 µM (inactive); in experiment [9] it was 13.6 µM (inactive); in experiment [10], 17.4 µM (inactive). In addition, the GI50 was 14.3 µM (inactive) in experiment [11]; 12.6 µM (inactive) in experiment [12]; 13.3 µM (inactive) in [13]; 20.5 µM (inactive) in [14]; 11.1 µM (inactive) in experiment [15]; 12.2 µM (inactive) in [16]. Also, the GI50 in experiment [17] was 14.7 µM (inactive).

For the compound `C/C(=C\C(=O)O)C(=O)N(C)c1ccccc1I`, the GI50 in [1], in [2], in experiment [3], in experiment [4], in experiment [19] and in experiment [5] was > 100 µM (inactive) in each case. In addition, the GI50 in experiment [6], in [7], in [20], in experiment [8], in [9] and in experiment [10] was > 100 µM (inactive) in each case. For the same compound, the GI50 in experiment [11], in experiment [12], in experiment [13], in experiment [14], in experiment [15] and in [16] was > 100 µM (inactive) throughout. Besides, the GI50 in experiment [17] was > 100 µM (inactive).

For the compound `CC(=O)Nc1ccc(-c2nc3ccccc3s2)cc1C`, the GI50 in [1] was 44.4 µM (inactive); in experiment [2] it was 69.7 µM (inactive); in experiment [3], 75.5 µM (inactive); in experiment [4], 17.9 µM (inactive); in [5] it was > 100 µM (inactive); in experiment [6], 40.6 µM (inactive). The GI50 in [7] was 51.2 µM (inactive); in [8], 2.9 µM (inactive); in experiment [9], 29 µM (inactive); in experiment [10] it was 40 µM (inactive); in experiment [11], 36.9 µM (inactive); in experiment [12], 52.6 µM (inactive). Also, the GI50 in experiment [13] was 42.9 µM (inactive); in experiment [14], 53.1 µM (inactive); in [15], 12.2 µM (inactive); in experiment [16], 44.7 µM (inactive); in experiment [17], 78.2 µM (inactive); in experiment [18], 29.9 µM (inactive).

Regarding `COc1ccc(CCN2C(=O)CC34C=CC(CC3C2=O)O4)cc1OC` (centres undefined), the GI50 in [1], in experiment [2], in [3], in experiment [4], in experiment [19] and in experiment [5] was > 100 µM (inactive) in each case. Further, the GI50 in experiment [6], in [7], in experiment [8], in experiment [9], in experiment [10] and in [11] was > 100 µM (inactive) throughout. In addition, the GI50 in experiment [12], in [13], in experiment [14], in [15] and in [18] was > 100 µM (inactive) each time.
